The target in experiment [1] is T1, Gal4-RORγ-LBD (Homo sapiens, UniProt P51449).
T1 construct: expressed in transfected cells; host or cells: HEK-293 cells (pcDNA3.1neo plasmid)
T1 sequence (P51449 269-508 limits assumed): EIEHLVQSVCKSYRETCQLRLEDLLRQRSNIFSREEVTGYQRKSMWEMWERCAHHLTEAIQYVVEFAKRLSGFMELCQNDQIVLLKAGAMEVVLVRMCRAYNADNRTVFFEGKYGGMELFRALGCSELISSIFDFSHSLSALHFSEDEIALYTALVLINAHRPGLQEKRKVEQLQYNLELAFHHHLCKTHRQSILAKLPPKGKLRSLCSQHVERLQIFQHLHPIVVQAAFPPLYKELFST
Description: Gal4-RORγ Luciferase Reporter Assay in HEK-293T Cells. It is filed as cell-based. Conditions: HEK-293 cells, luciferase reporter, with 2 μM ursolic acid. Summed up:
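HEK-293 cells were transiently co-transfected with Gal4-RORγ-LBD and pGL4.31 Gal4-luciferase, with ursolic acid added at 2 μM final. Compounds were incubated overnight at 37° C. in 0.2% DMSO and luminescence read with One-Glo. Max Response is the upper plateau of a 4-parameter logistic fit, with signal lacking ursolic acid or compound set to 100.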
Background: In a reporter assay the amount or activity of a reporter protein is the signal.

The target in experiment [2] is T2, RORγ-LBD (Homo sapiens, UniProt P51449).
T2 construct: made in house; host or cells: SF9 cells (baculovirus)
T2 sequence (P51449 269-508 limits assumed): T1 sequence (P51449 269-508 limits assumed)
Description: RORγ-Ligand Binding Domain (LBD) TR-FRET Assay.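 As to TR-FRET Assay Max Response: 665/615 nm ratio relative to signal without ursolic acid or compound set at 100.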 It is filed as biochemical. Summed up:
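His-tagged RORγ-LBD from SF9 baculovirus lysate, ~3 nM final, in 50 mM Tris pH 7.0, 50 mM KCl, 1 mM EDTA, 0.1 mM DTT, 0.01% BSA. Biotinylated SRC1 LXXLL peptide at 200 nM final with 2 μM ursolic acid; TR-FRET read-out, 1% DMSO final.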
On the technique in general: TR-FRET usually uses a lanthanide donor and a delayed reading to cut background.

Some results are limits rather than exact numbers.

For orientation: EC50 means the concentration needed to bring the measured effect to its halfway point. Read a low EC50 as an effect from little substance. Regarding `O=c1[nH]nc(CC[C@H]2CN(S(=O)(=O)c3cccc(C(F)(F)F)c3)c3cc(-c4cc(F)cc(F)c4Cl)ccc3O2)o1` [Compound 28I, (S)-5-(2-(6-(2-chloro-3,5-difluorophenyl)-4-((3-(trifluoromethyl)phenyl)sulfonyl)-3,4-dihydro-2H-benzo[b][1,4]oxazin-2-yl)ethyl)-1,3,4-oxadiazol-2(3H)-one], in experiment [1], the EC50 is < 0.5 µM and the “Gal4-RORγ Assay Max Response” value is on record as “** (The symbol “**” indicates a value in the range of greater than 90 to 150)”. For the same molecule, in experiment [2], the EC50 is < 0.5 µM and the “TR-FRET Assay Max Response” value is on record as “**** (The symbol “****” indicates a value greater than 200)”.
As to `COc1cc(S(=O)(=O)N2C[C@H](CCc3n[nH]c(=O)o3)Oc3ccc(-c4cc(F)ccc4F)cc32)ccc1F` [Compound 28J, (S)-5-(2-(6-(2,5-difluorophenyl)-4-((4-fluoro-3-methoxyphenyl)-sulfonyl)-3,4-dihydro-2H-benzo[b][1,4]oxazin-2-yl)ethyl)-1,3,4-oxadiazol-2(3H)-one], in experiment [1], the EC50 is < 0.5 µM and the “Gal4-RORγ Assay Max Response” value was “** (The symbol “**” indicates a value in the range of greater than 90 to 150)”. For the same molecule, in experiment [2], the EC50 is < 0.5 µM and the “TR-FRET Assay Max Response” value is listed as “**** (The symbol “****” indicates a value greater than 200)”.
As to `COc1cc(S(=O)(=O)N2C[C@H](CCc3n[nH]c(=O)o3)Oc3ccc(-c4cccc(C(F)(F)F)n4)cc32)ccc1F` [Compound 28K, (S)-5-(2-(4-((4-fluoro-3-methoxyphenyl)sulfonyl)-6-(6-(trifluoromethyl)pyridin-2-yl)-3,4-dihydro-2H-benzo[b][1,4]oxazin-2-yl)ethyl)-1,3,4-oxadiazol-2(3H)-one], in experiment [1], the EC50 was < 0.5 µM and the “Gal4-RORγ Assay Max Response” value is on record as “** (The symbol “**” indicates a value in the range of greater than 90 to 150)”. Besides, in experiment [2], the EC50 was < 0.5 µM and the “TR-FRET Assay Max Response” value was “**** (The symbol “****” indicates a value greater than 200)”.
`CC(C)(O)C(=O)NCC[C@H]1CN(S(=O)(=O)c2cccc(C(F)(F)F)c2)c2cc(-c3cc(F)ccc3F)ccc2O1` [Compound 29, (S)—N-(2-(6-(2,5-difluorophenyl)-4-((3-(trifluoromethyl)phenyl)sulfonyl)-3,4-dihydro-2H-benzo[b][1,4]oxazin-2-yl)ethyl)-2-hydroxy-2-methylpropanamide]: in experiment [1], the EC50 was < 0.5 µM and the “Gal4-RORγ Assay Max Response” value is “** (The symbol “**” indicates a value in the range of greater than 90 to 150)”. In addition, in experiment [2], the EC50 was < 0.5 µM and the “TR-FRET Assay Max Response” value is reported as “**** (The symbol “****” indicates a value greater than 200)”.
Regarding `CN(C)c1cccc(-c2ccc3c(c2)N(S(=O)(=O)c2cccc(C(F)(F)F)c2)C[C@H](CCNC(=O)C(C)(C)O)O3)n1` [Compound 30A, (S)-N-(2-(6-(6-(dimethylamino)-pyridin-2-yl)-4-((3-(trifluoro-methyl)phenyl)sulfonyl)-3,4-dihydro-2H-benzo[b][1,4]-oxazin-2-yl)ethyl)-2-hydroxy-2-methylpropanamide], in experiment [1], the EC50 is < 0.5 µM and the “Gal4-RORγ Assay Max Response” value is “* (The symbol “*” indicates a value in the range of 25 to 90)”. Besides, in experiment [2], the EC50 was < 0.5 µM and the “TR-FRET Assay Max Response” value is “**** (The symbol “****” indicates a value greater than 200)”.
Regarding `O=C1CC(C(=O)NC[C@H]2CN(S(=O)(=O)c3cccc(C(F)(F)F)c3)c3cc(-c4cc(F)ccc4F)ccc3O2)C1` [Compound 30AA, (S)-N-((6-(2,5-difluorophenyl)-4-((3-(trifluoromethyl)phenyl)-sulfonyl)-3,4-dihydro-2H-benzo[b][1,4]oxazin-2-yl)methyl)-3-oxocyclobutane-1-carboxamide], in experiment [1], the EC50 is < 0.5 µM and the “Gal4-RORγ Assay Max Response” value was “* (The symbol “*” indicates a value in the range of 25 to 90)”. Also, in experiment [2], the EC50 is < 0.5 µM and the “TR-FRET Assay Max Response” value is on record as “**** (The symbol “****” indicates a value greater than 200)”.
For `O=C(CC1CC1)NC[C@H]1CN(S(=O)(=O)c2cccc(C(F)(F)F)c2)c2cc(-c3cc(F)ccc3F)ccc2O1` [Compound 30AB, (S)-2-cyclopropyl-N-((6-(2,5-difluorophenyl)-4-((3-(trifluoromethyl)phenyl)sulfonyl)-3,4-dihydro-2H-benzo[b][1,4]oxazin-2-yl)methyl)acetamide], in experiment [1], the EC50 was < 0.5 µM and the “Gal4-RORγ Assay Max Response” value is “* (The symbol “*” indicates a value in the range of 25 to 90)”. For the same molecule, in experiment [2], the EC50 was < 0.5 µM and the “TR-FRET Assay Max Response” value was “**** (The symbol “****” indicates a value greater than 200)”.
For `O=C(NC[C@H]1CN(S(=O)(=O)c2cccc(C(F)(F)F)c2)c2cc(-c3cc(F)ccc3F)ccc2O1)c1cn[nH]c1` [Compound 30AC, (S)-N-((6-(2,5-difluorophenyl)-4-((3-(trifluoromethyl)phenyl)-sulfonyl)-3,4-dihydro-2H-benzo[b][1,4]oxazin-2-yl)methyl)-1H-pyrazole-4-carboxamide], in experiment [1], the EC50 was in the range of 0.5 to 5 µM and the “Gal4-RORγ Assay Max Response” value is listed as “* (The symbol “*” indicates a value in the range of 25 to 90)”. In experiment [2], the EC50 was < 0.5 µM and the “TR-FRET Assay Max Response” value is “**** (The symbol “****” indicates a value greater than 200)”.
Taken in the same sequence, the figures for `O=C(NC[C@H]1CN(S(=O)(=O)c2cccc(C(F)(F)F)c2)c2cc(-c3cc(F)ccc3F)ccc2O1)c1cc[nH]n1` [Compound 30AD, (S)-N-((6-(2,5-difluorophenyl)-4-((3-(trifluoromethyl)phenyl)-sulfonyl)-3,4-dihydro-2H-benzo[b][1,4]oxazin-2-yl)methyl)-1H-pyrazole-3-carboxamide] were < 0.5 µM, “* (The symbol “*” indicates a value in the range of 25 to 90)”, < 0.5 µM and “**** (The symbol “****” indicates a value greater than 200)”.
With `C[C@H](O)C(=O)NC[C@H]1CN(S(=O)(=O)c2cccc(C(F)(F)F)c2)c2cc(-c3cc(F)ccc3F)ccc2O1` [Compound 30AE, (S)-N-(((S)-6-(2,5-difluoro-phenyl)-4-((3-(trifluoromethyl)-phenyl)sulfonyl)-3,4-dihydro-2H-benzo[b][1,4]oxazin-2-yl)-methyl)-2-hydroxypropanamide], in experiment [1], the EC50 is < 0.5 µM and the “Gal4-RORγ Assay Max Response” value is given as “** (The symbol “**” indicates a value in the range of greater than 90 to 150)”. Moreover, in experiment [2], the EC50 is < 0.5 µM and the “TR-FRET Assay Max Response” value is recorded as “*** (The symbol “***” indicates a value in the range of greater than 150 to 200)”.
Take `C[C@@H](O)C(=O)NC[C@H]1CN(S(=O)(=O)c2cccc(C(F)(F)F)c2)c2cc(-c3cc(F)ccc3F)ccc2O1` [Compound 30AF, (R)-N-(((S)-6-(2,5-difluoro-phenyl)-4-((3-(trifluoromethyl)-phenyl)sulfonyl)-3,4-dihydro-2H-benzo[b][1,4]oxazin-2-yl)-methyl)-2-hydroxypropanamide]: in experiment [1], the EC50 was < 0.5 µM and the “Gal4-RORγ Assay Max Response” value was “** (The symbol “**” indicates a value in the range of greater than 90 to 150)”. Moreover, in experiment [2], the EC50 is < 0.5 µM and the “TR-FRET Assay Max Response” value is on record as “*** (The symbol “***” indicates a value in the range of greater than 150 to 200)”.
On to `O=C(NC[C@H]1CN(S(=O)(=O)c2cccc(C(F)(F)F)c2)c2cc(-c3cc(F)ccc3F)ccc2O1)C1(O)CC1` [Compound 30AG, (S)-N-((6-(2,5-difluorophenyl)-4-((3-(trifluoromethyl)phenyl)-sulfonyl)-3,4-dihydro-2H-benzo[b][1,4]oxazin-2-yl)methyl)-1-hydroxycyclo-propane-1-carboxamide], for which, in experiment [1], the EC50 is < 0.5 µM and the “Gal4-RORγ Assay Max Response” value is listed as “** (The symbol “**” indicates a value in the range of greater than 90 to 150)”. Moreover, in experiment [2], the EC50 was < 0.5 µM and the “TR-FRET Assay Max Response” value is on record as “*** (The symbol “***” indicates a value in the range of greater than 150 to 200)”.
Regarding `Cn1cc(C(=O)NC[C@H]2CN(S(=O)(=O)c3cccc(C(F)(F)F)c3)c3cc(-c4cc(F)ccc4F)ccc3O2)cn1` [Compound 30AH, (S)-N-((6-(2,5-difluorophenyl)-4-((3-(trifluoromethyl)phenyl)-sulfonyl)-3,4-dihydro-2H-benzo[b][1,4]oxazin-2-yl)methyl)-1-methyl-1H-pyrazole-4-carboxamide], in experiment [1], the EC50 is < 0.5 µM and the “Gal4-RORγ Assay Max Response” value is given as “** (The symbol “**” indicates a value in the range of greater than 90 to 150)”. In experiment [2], the EC50 was < 0.5 µM and the “TR-FRET Assay Max Response” value was “*** (The symbol “***” indicates a value in the range of greater than 150 to 200)”.
Regarding `Cn1ccc(C(=O)NC[C@H]2CN(S(=O)(=O)c3cccc(C(F)(F)F)c3)c3cc(-c4cc(F)ccc4F)ccc3O2)n1` [Compound 30AI, (S)-N-((6-(2,5-difluorophenyl)-4-((3-(trifluoromethyl)phenyl)-sulfonyl)-3,4-dihydro-2H-benzo[b][1,4]oxazin-2-yl)methyl)-1-methyl-1H-pyrazole-3-carboxamide], in experiment [1], the EC50 was < 0.5 µM and the “Gal4-RORγ Assay Max Response” value is “** (The symbol “**” indicates a value in the range of greater than 90 to 150)”. In addition, in experiment [2], the EC50 was < 0.5 µM and the “TR-FRET Assay Max Response” value was “*** (The symbol “***” indicates a value in the range of greater than 150 to 200)”.

The record behind these values is patent US10611740B2, “Aryl dihydro-2H-benzo[b][1,4]oxazine sulfonamide and related compounds for use as agonists of RORγ and the treatment of disease” (Lycera Corporation, priority 2015, dated 2020).
